Test results reported in paper PMC7489219 (Molecular Brain, 2020).
Counter-ions that a name gives are not always drawn.

system: T1, primary mouse cortical neurons; assay: cells; parameters: Protection from NMDA-induced (30 uM, 10 min) neuronal death; Hoechst nuclear morphology by automated microscopy; details: Cortical neurone, 20 h, read-out: % inhibition, inhibition of NMDA-induced cell death (protection score), 30 min pre-treatment
T1 construct: primary cortical neurons, DIV 10
Summary of the method: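 On DIV 10, primary mouse cortical neurons were given compound at 10 μM for 30 min at 37 °C, then 30 μM NMDA for 10 min, washed, and kept 20 h with compound. Dead cells were scored by nuclear morphology, and % protection was derived from survival relative to vehicle + NMDA and untreated controls.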

Row | Structure (SMILES) | inhibition at 10 µM [%]
1 | NS(=O)(=O)c1cc(C(=O)O)c(NCc2ccco2)cc1Cl [Furosemide (Lasix)] | 32.1
2 | CC[N+](CC)(CC)CCOc1cccc(OCC[N+](CC)(CC)CC)c1OCC[N+](CC)(CC)CC [Gallamine triethiodide (Flaxedil)] | -8.46
3 | CC(C)=CCC[C@]1(C)C=Cc2c(O)c3c(c(CC=C(C)C)c2O1)O[C@]12C(=C[C@@H]4C[C@H]1C(C)(C)O[C@@]2(C/C=C(/C)C(=O)O)C4=O)C3=O [Gambogic Acid] | 14.8
4 | OCc1ccc(O[C@@H]2O[C@H](CO)[C@@H](O)[C@H](O)[C@H]2O)cc1 [Gastrodin(Gastrodine)] | 3.84
5 | COc1c(N2CCNC(C)C2)c(F)cc2c(=O)c(C(=O)O)cn(C3CC3)c12 (centres unmarked) [Gatifloxacin] | -10.3
6 | Nc1ccn([C@@H]2O[C@H](CO)[C@@H](O)C2(F)F)c(=O)n1 [Gemcitabine HCl (Gemzar)] | -9.76
7 | Cc1ccc(C)c(OCCCC(C)(C)C(=O)O)c1 [Gemfibrozil (Lopid)] | 2.6
8 | C#C[C@]1(O)C=C[C@H]2[C@@H]3CCC4=CC(=O)CC[C@@H]4[C@H]3CC[C@@]21CC [Gestodene] | -1.48
9 | CCC1=C(C)CN(C(=O)NCCc2ccc(S(=O)(=O)NC(=O)N[C@H]3CC[C@H](C)CC3)cc2)C1=O [Glimepiride] | -11.4
10 | Cc1cnc(C(=O)NCCc2ccc(S(=O)(=O)NC(=O)NC3CCCCC3)cc2)cn1 [Glipizide (Glucotrol)] | 9.36
11 | COc1ccc(Cl)cc1C(=O)NCCc1ccc(S(=O)(=O)NC(=O)NC2CCCCC2)cc1 [Glyburide (Diabeta)] | 0.906
12 | Cc1cc2c(C(C)C)c(O)c(O)c(C=O)c2c(O)c1-c1c(C)cc2c(C(C)C)c(O)c(O)c(C=O)c2c1O [Gossypol] | -2.2
13 | CN(C)Cc1c[nH]c2ccccc12 [Gramine] | -3.83
14 | COc1ccccc1OCC(O)CO (centres unmarked) [Guaifenesin (Guaiphenesin)] | 13.1
15 | Nc1nc2c(ncn2[C@@H]2O[C@H](CO)[C@@H](O)[C@H]2O)c(=O)[nH]1 [Guanosine] | -1.96
16 | O=C(CCCN1CCC(O)(c2ccc(Cl)cc2)CC1)c1ccc(F)cc1 [Haloperidol (Haldol)] | 65
17 | Oc1cc2c(cc1O)[C@@H]1c3ccc(O)c(O)c3OC[C@]1(O)C2 [Hematoxylin (Hydroxybrazilin)] | 1.27
18 | COc1ccc([C@@H]2CC(=O)c3c(O)cc(O)cc3O2)cc1O [Hesperetin] | -3.04
19 | COc1ccc([C@@H]2CC(=O)c3c(O)cc(O[C@@H]4O[C@H](CO[C@@H]5O[C@@H](C)[C@H](O)[C@@H](O)[C@H]5O)[C@@H](O)[C@H](O)[C@H]4O)cc3O2)cc1O [Hesperidin] | -3.55
20 | C=CCc1ccc(O)c(-c2ccc(O)c(CC=C)c2)c1 [Honokiol] | -2.26
21 | CN(C)CCc1ccc(O)cc1 [Hordenine] | -0.889
22 | NNc1nncc2ccccc12 [Hydralazine hydrochloride] | -0.625
23 | NS(=O)(=O)c1cc2c(cc1Cl)NCNS2(=O)=O [Hydrochlorothiazide] | 8.57
24 | C[C@]12CCC(=O)C=C1CC[C@@H]1[C@@H]2[C@@H](O)C[C@@]2(C)[C@H]1CC[C@]2(O)C(=O)CO [Hydrocortisone (Cortisol)] | 4.6
25 | NC(=O)NO [Hydroxyurea (Cytodrox)] | -2.47

Row | Structure (SMILES) | inhibition at 10 µM [%]
26 | C[C@H](CCC(=O)O)[C@H]1CC[C@H]2[C@@H]3C[C@H](O)[C@@H]4C[C@H](O)CC[C@]4(C)[C@H]3CC[C@]12C [Hyodeoxycholic acid (HDCA)] | -3.21
27 | O=c1[nH]cnc2nc[nH]c12 [Hypoxanthine] | 1.08
28 | COc1ccc(-c2oc3c(CC=C(C)C)c(O[C@@H]4O[C@H](CO)[C@@H](O)[C@H](O)[C@H]4O)cc(O)c3c(=O)c2O[C@@H]2O[C@@H](C)[C@H](O)[C@@H](O)[C@H]2O)cc1 [Icariin] | -2.42
29 | COc1cc(C(C)=O)ccc1OCCCN1CCC(c2noc3cc(F)ccc23)CC1 [Iloperidone (Fanapt)] | 21.7
30 | CC(C)Cn1cnc2c(N)nc3ccccc3c21 [Imiquimod] | -8.7
31 | CC1Cc2ccccc2N1NC(=O)c1ccc(Cl)c(S(N)(=O)=O)c1 (centres unmarked) [Indapamide (Lozol)] | 0.426
32 | O=C1Nc2ccccc2/C1=C1/Nc2ccccc2C1=O [Indirubin] | 8.04
33 | OCc1c[nH]c2ccccc12 [Indole-3-carbinol] | -2.03
34 | COc1ccc2c(c1)c(CC(=O)O)c(C)n2C(=O)c1ccc(Cl)cc1 [Indomethacin (Indocid, Indocin)] | 3.41
35 | O=c1[nH]cnc2c1ncn2[C@@H]1O[C@H](CO)[C@@H](O)[C@H]1O [Inosine] | 19.8
36 | CC(C)[N+]1(C)[C@@H]2CC[C@H]1CC(OC(=O)C(CO)c1ccccc1)C2 (some centres unmarked) [Ipratropium bromide] | 9.81
37 | CC(C)Oc1ccc2c(=O)c(-c3ccccc3)coc2c1 [Ipriflavone] | -1.69
38 | CCCCC1=NC2(CCCC2)C(=O)N1Cc1ccc(-c2ccccc2-c2nnn[nH]2)cc1 [Irbesartan (Avapro)] | 0.237
39 | O=C(/C=C/c1ccc(O)cc1)c1ccc(O)cc1O [Isoliquiritigenin] | 5.56
40 | NNC(=O)c1ccncc1 [Isoniazid (Tubizid)] | 45.6
41 | CC(C)NCC(O)c1ccc(O)c(O)c1 (centres unmarked) [Isoprenaline hydrochloride] | -0.7
42 | CC1=C(/C=C/C(C)=C/C=C/C(C)=C\C(=O)O)C(C)(C)CCC1 [Isotretinoin] | -1.4
43 | O=c1c(O)c(-c2ccc(O)cc2)oc2cc(O)cc(O)c12 [Kaempferol] | -2.58
44 | CC(C(=O)O)c1cccc(C(=O)c2ccccc2)c1 (centres unmarked) [Ketoprofen (Actron)] | 30.2
45 | O=C(c1ccccc1)c1ccc2n1CCC2C(=O)O (centres unmarked) [Ketorolac (Toradol)] | 37.4
46 | c1coc(CNc2ncnc3[nH]cnc23)c1 [Kinetin (6-Furfuryladenine)] | -0.453
47 | C[C@H](O)[C@H](O)[C@@H](O)[C@@H](O)C=O [L(+)-Rhamnose Monohydrate] | 0.562
48 | CNC[C@@H](O)c1ccc(O)c(O)c1 [L-Adrenaline (Epinephrine)] | 0.37
49 | NC(=O)CC[C@H](N)C(=O)O [L-Glutamine] | -2.01
50 | C[N+](C)(C)C[C@H](O)CC(=O)[O-] [L-carnitine (Levocarnitine)] | 3.2

Row | Structure (SMILES) | inhibition at 10 µM [%]
51 | Nc1ccn([C@@H]2CS[C@H](CO)O2)c(=O)n1 [Lamivudine (Epivir)] | 0.555
52 | Cc1c(OCC(F)(F)F)ccnc1C[S+]([O-])c1nc2ccccc2[nH]1 (centres unmarked) [Lansoprazole] | -7.28
53 | CS(=O)(=O)CCNCc1ccc(-c2ccc3ncnc(Nc4ccc(OCc5cccc(F)c5)c(Cl)c4)c3c2)o1 [Lapatinib Ditosylate (Tykerb)] | 4.76
54 | Cc1oncc1C(=O)Nc1ccc(C(F)(F)F)cc1 [Leflunomide] | 15.6
55 | Nc1cccc2c1CN(C1CCC(=O)NC1=O)C2=O (centres unmarked) [Lenalidomide] | -2.36
56 | N#Cc1ccc(C(c2ccc(C#N)cc2)n2cncn2)cc1 [Letrozole] | 0.34
57 | Nc1nc2c(c(=O)[nH]1)N(C=O)C(CNc1ccc(C(=O)N[C@@H](CCC(=O)O)C(=O)O)cc1)CN2 (some centres unmarked) [Leucovorin Calcium] | -10.9
58 | c1ccc([C@H]2CN3CCSC3=N2)cc1 [Levamisole Hydrochloride (Ergamisol)] | 19.8
59 | N[C@@H](Cc1ccc(O)c(O)c1)C(=O)O [Levodopa (Sinemet)] | 0.209
60 | C[C@H]1COc2c(N3CCN(C)CC3)c(F)cc3c(=O)c(C(=O)O)cn1c23 [Levofloxacin (Levaquin)] | -4.92
61 | C#C[C@]1(O)CC[C@H]2[C@@H]3CCC4=CC(=O)CC[C@@H]4[C@H]3CC[C@@]21CC [Levonorgestrel (Levonelle)] | -1.05
62 | CCN(CC)CC(=O)Nc1c(C)cccc1C [Lidocaine (Alphacaine)] | -8.6
63 | CC1(C)O[C@H]2CC(=O)OC[C@]23[C@H]2CC[C@@]4(C)[C@H](c5ccoc5)OC(=O)[C@H]5O[C@]54[C@]2(C)C(=O)C[C@@H]13 [Limonin] | -3.17
64 | CCC[C@@H]1C[C@@H](C(=O)N[C@@H]([C@H]2O[C@H](SC)[C@H](O)[C@@H](O)[C@H]2O)[C@@H](C)O)N(C)C1 [Lincomycin hydrochloride (Lincocin)] | -7.87
65 | CC(=O)NC[C@H]1CN(c2ccc(N3CCOCC3)c(F)c2)C(=O)O1 [Linezolid (Zyvox)] | 37
66 | CCn1cc(C(=O)O)c(=O)c2cc(F)c(N3CCNC(C)C3)c(F)c21 (centres unmarked) [Lomefloxacin hydrochloride (Maxaquin)] | 3.08
67 | CN(C)C(=O)C(CCN1CCC(O)(c2ccc(Cl)cc2)CC1)(c1ccccc1)c1ccccc1 [Loperamide hydrochloride] | -2.48
68 | Cc1cccc(C)c1OCC(=O)N[C@@H](Cc1ccccc1)[C@@H](O)C[C@H](Cc1ccccc1)NC(=O)[C@H](C(C)C)N1CCCNC1=O [Lopinavir (ABT-378)] | 1.09
69 | CCOC(=O)N1CCC(=C2c3ccc(Cl)cc3CCc3cccnc32)CC1 [Loratadine] | -11.1
70 | CCOC(=O)O[C@]1(C(=O)OCCl)CC[C@H]2[C@@H]3CCC4=CC(=O)C=C[C@]4(C)[C@H]3[C@@H](O)C[C@@]21C [Loteprednol Etabonate] | 30.7
71 | O=c1cc(-c2ccc(O)c(O)c2)oc2cc(O)cc(O)c12 [Luteolin] | -2.28
72 | C=CCc1ccc(O)c(-c2cc(CC=C)ccc2O)c1 [Magnolol] | -3.4
73 | CNCCC[C@]12CC[C@H](c3ccccc31)c1ccccc12 [Maprotiline hydrochloride] | 0.000867
74 | Cc1nnc(C(C)C)n1[C@@H]1C[C@H]2CC[C@@H](C1)N2CC[C@H](NC(=O)C1CCC(F)(F)CC1)c1ccccc1 [Maraviroc] | 2.4
